Earlier results on 1 molecule are cited in paper PMC6340882, “Targeting protein kinase CK2 and CDK4/6 pathways with a multi-kinase inhibitor ON108110 suppresses pro-survival signaling and growth in mantle cell lymphoma and T-acute lymphoblastic leukemia” (Oncotarget, 2018).

The data set deals with mantle cell lymphoma. Details: method as in PMID 22383795. The note with it: monotherapy for MCL, patients; cited from earlier work.

As to `CC(=O)c1c(C)c2cnc(Nc3ccc(N4CCNCC4)cn3)nc2n(C2CCCC2)c1=O` [Palbociclib], the overall response rate is listed as 18%.
